Columns and labels:
[1] = molecular target: T1, VEGFR-2 (Homo sapiens, UniProt P35968); experiment: VEGFR-2 activation, western blotting in EA.hy926 cells; type: cell-based
T1 construct: endogenous in cells; host or cells: EA.hy926 endothelial cells
Protocol: In the present example, BO-2590 and BO-2577 were subject to the test of their activity in suppressing VEGFR-2 by western blotting analysis. Briefly, the endothelial EA.hy926 cells were incubated with BO-2590 or BO-2577 at various concentrations for 12 hr. The primary antibodies, anti-VEGFR-2 and anti-p-VEGFR-2, were used to blot the proteins of total VEGFR-2 and p-VEGFR-2, respectively. Results are illustrated in FIG. 3.

[2] = tested on: H526 cells; experiment: single cell electrophoresis (comet) assay; type: cell-based; details: FIG. 2
Description: The data is the average of 3 independent experiments.
To this purpose, cells were encapsulating in a low-melting-point agarose suspension on a microscope slide, then were lysed in neutral or alkaline (pH>13) condition, and electrophoresis of the suspended lysed cells. The term “comet” refers to the pattern of DNA migration through the electrophoresis gel, which often resembles a comet, and the intensity of the comet tail relative to the head reflects the number of DNA breaks.

T1 sequence (P35968 20-1356): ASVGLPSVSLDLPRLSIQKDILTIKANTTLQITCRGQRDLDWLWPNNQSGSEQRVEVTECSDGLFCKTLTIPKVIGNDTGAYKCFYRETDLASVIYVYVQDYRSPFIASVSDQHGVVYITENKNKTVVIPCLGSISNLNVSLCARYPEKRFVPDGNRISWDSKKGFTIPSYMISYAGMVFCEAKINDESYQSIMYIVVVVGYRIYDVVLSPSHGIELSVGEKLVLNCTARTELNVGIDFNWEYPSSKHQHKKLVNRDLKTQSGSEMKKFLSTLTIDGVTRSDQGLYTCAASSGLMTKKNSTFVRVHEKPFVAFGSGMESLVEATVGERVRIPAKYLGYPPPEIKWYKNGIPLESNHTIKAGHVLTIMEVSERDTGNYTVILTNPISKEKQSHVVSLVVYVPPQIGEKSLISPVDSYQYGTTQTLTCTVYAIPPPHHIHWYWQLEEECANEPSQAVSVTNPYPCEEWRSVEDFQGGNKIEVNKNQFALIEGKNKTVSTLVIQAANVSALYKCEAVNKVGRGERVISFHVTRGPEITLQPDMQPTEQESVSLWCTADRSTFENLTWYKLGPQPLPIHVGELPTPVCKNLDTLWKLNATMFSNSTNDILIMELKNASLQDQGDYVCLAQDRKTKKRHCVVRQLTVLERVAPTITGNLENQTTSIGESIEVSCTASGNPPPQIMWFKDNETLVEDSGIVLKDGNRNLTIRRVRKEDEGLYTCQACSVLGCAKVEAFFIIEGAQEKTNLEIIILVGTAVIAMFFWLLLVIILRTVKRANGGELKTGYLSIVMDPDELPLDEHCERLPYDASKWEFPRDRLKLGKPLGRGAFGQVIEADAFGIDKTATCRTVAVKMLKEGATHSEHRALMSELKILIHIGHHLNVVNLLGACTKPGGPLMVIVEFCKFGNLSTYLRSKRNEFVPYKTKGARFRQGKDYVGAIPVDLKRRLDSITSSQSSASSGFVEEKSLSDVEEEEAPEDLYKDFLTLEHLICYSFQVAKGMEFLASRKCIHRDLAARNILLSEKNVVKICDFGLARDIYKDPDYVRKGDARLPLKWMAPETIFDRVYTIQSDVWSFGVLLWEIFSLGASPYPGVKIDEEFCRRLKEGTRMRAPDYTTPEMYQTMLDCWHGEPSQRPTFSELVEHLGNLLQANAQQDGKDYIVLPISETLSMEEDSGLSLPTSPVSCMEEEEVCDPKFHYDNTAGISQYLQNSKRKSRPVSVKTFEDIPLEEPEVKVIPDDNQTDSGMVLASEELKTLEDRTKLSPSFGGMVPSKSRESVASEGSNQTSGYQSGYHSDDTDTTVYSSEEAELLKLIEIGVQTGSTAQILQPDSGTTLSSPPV

dose effective on suppression of p-VEGFR-2, lower than that of Valatanib ([1]; relative to Valatanib) [folds] | Compound | p-VEGFR-2 protein levels ([1]; EA.hy926 cells, 12 hr, FIG. 3) | total protein levels of VEGFR-2 ([1]; EA.hy926 cells, 12 hr, FIG. 3) | DNA damage (comet tail) [2]
~10 | Cc1c(CO)c(CO)c2c3ccccc3c(N3CCC(N4CCCCC4)CC3)nn12 [BO-2590, (6-([1,4′-Bipiperidin]-1′-yl)-3-methylpyrrolo[2,1-α]phthalazine-1,2-diyl)dimethanol] | marked suppression in p-VEGFR-2 protein levels | did not significantly change the total protein levels of VEGFR-2 | –
– | Cc1c(CO)c(CO)c2c3cc4ccccc4cc3c(N(C)C)nn12 [BO-2768, (6-(Dimethylamino)-3-methylbenzo[g]pyrrolo[2,1-α]phthalazine-1,2-diyl)dimethanol] | – | – | capable of inducing DNA breaks in a dose dependent manner

Source: patent publication US11066412B2, “Substituted pyrrolo[2,1-a]phthalazines and benzo[g]pyrrolo[2,1-a]phthalazines for the treatment of cancer” (Academia Sinica, priority 2017, dated 2021)
